One assay relates to NCI-H226 cells. The assay is described as follows: Viability assay in NCI-H226 (Yap-dependent) cells, CyQuant. It is filed as cell-based, human. Here is the method: (§1) Viability Assay in NCI-H226 (Yap-Dependent) and SW620 Yap KO (Yap Independent) Cells
(§2) The ability of YAP-TEAD inhibitors to inhibit tumor cell growth was evaluated using two different cell lines: NCI-H226, which is a YAP dependent cell line, and SW620 cells, where YAP and TAZ were knocked out using CRISPR to generate a YAP independent cell line.
(§3) For the assay, cells were treated in duplicates with the test compounds in a 10-point dose, 1:3 dilution steps, with the top concentration starting at 30 μM (final concentration in assay). After a 96 hour incubation at 37° C., 95% rH, and 5% CO2, a cell-permeant DNA-binding dye that stains only healthy cells (CyQUANT®, Promega) was added to the cells, allowing the quantification of cell viability.
(§4) Cell Media: The NCI-H226 cells were cultured in the following media: RPMI 1640, +10% FBS, +1× GlutaMAX, +10 mM HEPES, +0.5% Pen/Strep. The SW620-KO cells were cultured in the following media: DMEM/F-12, +10% FBS, +1× GlutaMAX, +10 mM HEPES, +0.5% Pen/Strep.
(§5) Reagents: The reagents used are listed below:
(§6) Cell culture: The cells were examined using an inverted microscope to check for health, cell density, etc. To dissociate adherent cells, the monolayer of cells was washed once with pre-warmed PBS. After removing the PBS, 3 ml pre-warmed Accutase was added to a F75 flask, dispersed evenly and the flask was allowed to sit in incubator for ˜4-5 minutes.
(§7) When a single cell suspension was obtained, 7 ml of prewarmed growth media was added and resuspended with the cells. The cell suspension was transferred to a sterile 15 ml conical centrifuge tube, and spun for 5 min at 300×g, RT. The supernatant was discarded and the pellet was resuspended in 10 ml of pre-warmed growth media.
(§8) The total cell count was determined, and 20 μl of the desired cell number was added to each well of a 384 well plate using a Multidrop Combi. The plates were then incubated for 24 hours at 37° C., 95% rH, and 5% CO2.
(§9) Compound treatment: 24 hours after seeding, the cells were treated with compounds.
(§10) A 1:333 dilution of compounds, diluted in DMSO, was made to get a final concentration of 0.3% DMSO per well. To transfer the compounds to the assay plate, […] was shot from Labcyte low dead volume plates to the cell plates containing 20 μl media/well with the ECHO 555 liquid handling system.
(§11) After treatment, the cells were fed with 20 μl fresh pre-warmed assay media using a Multidrop combi.
(§12) The assay plates were then incubated for 96 h at 37° C., 95% rH, and 5% CO2.
(§13) 96 h after treatment 30 μl of CyQuant® reagent was added to the assay plates using a Multidrop combi in the dark. The plates were then incubated for 1 hour at 37° C., 95% rH and 5% CO2. Thereafter, the assay plates were removed from the incubator and allowed to equilibrate to RT for 30 min in the dark without lid. Finally, they were measured using an EnVision microplate reader with a FITC bottom read program.

For the next assay, the system named is YAP-TEAD interaction. The assay is described as follows: SK-HEP-1 reporter assay (8xTEAD responsive elements driving NanoLuc luciferase). It is filed as cell-based. The essentials:
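SK-HEP-1 cells stably carrying 8×TEAD-driven NanoLuc treated in duplicate, 10-point dose from 30 μM final, 0.3% DMSO, 24 h at 37° C. Luminescence after NanoGlo lysis/substrate addition; IC50 calculated from dose response.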

In a further assay the test system is SW620 Yap KO cells. The assay is described as follows: Viability assay in SW620 Yap KO (Yap independent) cells, CyQuant. It is filed as cell-based. The following applies: n.d. = value not detectable below threshold given in parentheses, ND = not determinable within the entire range. Here is the method:
as §1, §2, §3, §4, §5, §6, §7, §8, §9, §10, §11, §12, §13

Where [1] appears, read: Homo sapiens, NCI-H226, 96 h, class symbols.
Setting [2] is: Homo sapiens, SK-HEP1, SK-HEP-1 reporter assay, class symbols.
Where [3] appears, read: SK-HEP-1 reporter assay, class symbols.
Setting [4] is: Homo sapiens, NCI-H226, 96 h, n.d. = value not detectable below threshold given in parentheses.
Where [5] appears, read: Homo sapiens, SK-HEP1, SK-HEP-1 reporter assay, n.d. = value not detectable below threshold given in parentheses, ND = not determinable within the entire range.

Each structure is given as a SMILES string. Structures can show the parent of a compound that is named as a salt.

Turning to `Cn1cc2c3cc(C(=O)N=S(C)(=O)CCO)ccc3n(-c3ccc(C(F)(F)F)cc3)c2n1` (single isomer, unassigned) [Example C73], the IC50 in the assay with NCI-H226 cells (setting [1]) was 1 to 100 nM; in the assay with YAP-TEAD interaction (setting [2]) it was 100 to 10000 nM; in the assay with SW620 Yap KO cells (Homo sapiens, SW-620, 96 h) it was more than 30000 nM.

Consider `Cn1cc2c3cc(C(=O)N=[S@@](C)(=O)CCO)ccc3n(-c3ccc(C(F)(F)F)cc3)c2n1` (single isomer, unassigned) [Example C74], for which the IC50 in the assay on NCI-H226 cells (setting [1]) was 1 to 100 nM; with YAP-TEAD interaction (setting [2]) it was 10 to 100 nM; with SW620 Yap KO cells (Homo sapiens, SW-620, 96 h) it was more than 30000 nM.

Turning to `CC(NC(=O)c1ccc2c(c1)c1cn(C)nc1n2-c1ccc(C(F)(F)F)cc1)c1ccn[nH]1` (single isomer, unassigned) [Example C75], the IC50 in the assay on NCI-H226 cells (setting [1]) is 1 to 100 nM; in the assay on YAP-TEAD interaction (setting [3]), 10 to 100 nM; with SW620 Yap KO cells (96 h) it was more than 30000 nM.

Consider `Cn1cc2c3cc(C(=O)N=[S@](=O)(CCO)Cc4cccnc4)ccc3n(-c3ccc(C(F)(F)F)cc3)c2n1` (single isomer, unassigned) [Example C188], for which the IC50 in the assay on NCI-H226 cells (setting [1]) is 1 to 100 nM; in the assay with YAP-TEAD interaction (Homo sapiens, SK-HEP1, SK-HEP-1 reporter assay, n.d. = value not detectable below threshold given in parentheses), more than 9500 nM.

Turning to `Cn1cc2c3cc(C(=O)N[C@H](CCO)c4ccccn4)ccc3n(-c3ccc(C(F)(F)F)cc3)c2n1` (single isomer, unassigned) [Example C239], the IC50 with NCI-H226 cells (setting [1]) is 100 to 1000 nM; with YAP-TEAD interaction (setting [2]), 100 to 10000 nM.

Turning to `Cn1cc2c3cc(C(=O)O)cnc3n(-c3ccc(C(F)(F)F)cc3)c2n1` [Example 37, 4-methyl-7-[4-(trifluoromethyl)phenyl]-4,5,7,9-tetraazatricyclo[6.4.0.0^2,6]dodeca-1(8),2,5,9,11-pentaene-11-carboxylic acid], the IC50 in the assay on NCI-H226 cells (96 h, class symbols) was more than 10000 nM; in the assay on YAP-TEAD interaction (setting [3]), 1 to 10 nM.

In the case of `Cc1snc2c1c1cc(C(=O)NCc3ncccn3)ccc1n2-c1ccc(C(F)(F)F)cc1` [Example C63, 3-methyl-N-[(pyrimidin-2-yl)methyl]-8-[4-(trifluoromethyl)phenyl]-8H-[1,2]thiazolo[3,4-b]indole-5-carboxamide], the IC50 in the assay on NCI-H226 cells (setting [1]) fell in the range of 1 to 100 nM; in the assay on YAP-TEAD interaction (setting [2]), 1 to 10 nM.

Consider `Cn1cc2c3cc(NS(=O)(=O)Cc4ccncc4)ccc3n(-c3ccc(C(F)(F)F)cc3)c2n1` [Example C128, N-{2-methyl-8-[4-(trifluoromethyl)phenyl]-2H,8H-pyrazolo[3,4-b]indol-5-yl}-1-(pyridin-4-yl)methanesulfonamide], for which the IC50 in the assay on NCI-H226 cells (setting [4]) was more than 3 nM; in the assay with YAP-TEAD interaction (setting [5]) it was more than 10000 nM.

Turning to `Cn1cc2c3cc(NS(=O)(=O)Cc4cccnc4)ccc3n(-c3ccc(C(F)(F)F)cc3)c2n1` [Example C129, N-{2-methyl-8-[4-(trifluoromethyl)phenyl]-2H,8H-pyrazolo[3,4-b]indol-5-yl}-1-(pyridin-3-yl)methanesulfonamide], the IC50 in the assay with NCI-H226 cells (setting [1]) was 1000 to 10000 nM; in the assay on YAP-TEAD interaction (setting [5]), more than 10000 nM.

In the case of `Cn1cc2c3cc(NS(=O)(=O)Cc4ccccn4)ccc3n(-c3ccc(C(F)(F)F)cc3)c2n1` [Example C130, N-{2-methyl-8-[4-(trifluoromethyl)phenyl]-2H,8H-pyrazolo[3,4-b]indol-5-yl}-1-(pyridin-2-yl)methanesulfonamide], the IC50 is more than 3 nM in the assay on NCI-H226 cells (setting [4]) and more than 30000 nM in the assay on YAP-TEAD interaction (setting [5]).

As to `Cn1cc2c3cc(C(=O)N4CC[C@H](O)C4)ccc3n(-c3ccc(C(F)(F)F)cn3)c2n1` [Example C151, (3S)-1-{2-methyl-8-[5-(trifluoromethyl)pyridin-2-yl]-2H,8H-pyrazolo[3,4-b]indole-5-carbonyl}pyrrolidin-3-ol], the IC50 in the assay on NCI-H226 cells (setting [1]) is 100 to 1000 nM; in the assay with YAP-TEAD interaction (setting [5]), more than 10000 nM.

For `C[C@H](NC(=O)c1ccc2c(c1)c1cn(C)nc1n2-c1ccc(C(F)(F)F)cc1)c1ccnc(N)c1` [Example C264], the IC50 in the assay on YAP-TEAD interaction (setting [2]) is 100 to 10000 nM.

Turning to `C[C@H](NC(=O)c1ccc2c(c1)c1cn(C)nc1n2-c1ccc(C(F)(F)F)cc1)c1ccc(Cl)nc1` [Example C265, N-[(1S)-1-(6-chloropyridin-3-yl)ethyl]-2-methyl-8-[4-(trifluoromethyl)phenyl]-2H,8H-pyrazolo[3,4-b]indole-5-carboxamide], the IC50 in the assay on YAP-TEAD interaction (setting [2]) was 10 to 100 nM.

With `Cn1cc2c3cc(C(=O)NC(CO)c4nncn4C)ccc3n(-c3ccc(C(F)(F)F)cc3)c2n1` (centres unmarked) [Example C267, N-[2-hydroxy-1-(4-methyl-4H-1,2,4-triazol-3-yl)ethyl]-2-methyl-8-[4-(trifluoromethyl)phenyl]-2H,8H-pyrazolo[3,4-b]indole-5-carboxamide], in the assay with YAP-TEAD interaction (setting [2]), the concentration for half-maximal inhibition (IC50) is 100 to 10000 nM.

On to `Cc1noc(C(CO)NC(=O)c2ccc3c(c2)c2cn(C)nc2n3-c2ccc(C(F)(F)F)cc2)n1` (centres unmarked) [Example C268, N-[2-hydroxy-1-(3-methyl-1,2,4-oxadiazol-5-yl)ethyl]-2-methyl-8-[4-(trifluoromethyl)phenyl]-2H,8H-pyrazolo[3,4-b]indole-5-carboxamide], for which the IC50 with YAP-TEAD interaction (setting [2]) was in the range of 100 to 10000 nM.

Compound `Cn1cc2c3cc(C(=O)/N=S4/CC(N)CO4)ccc3n(-c3ccc(C(F)(F)F)cc3)c2n1` (centres unmarked) [Example C269, N-(4-amino-1,2lambda4-oxathiolan-2-ylidene)-2-methyl-8-[4-(trifluoromethyl)phenyl]-2H,8H-pyrazolo[3,4-b]indole-5-carboxamide formate] yielded a 50% inhibitory concentration (IC50) in the assay with YAP-TEAD interaction (setting [2]) of 100 to 10000 nM.

In the assay on YAP-TEAD interaction (setting [2]), `Cn1cc2c3cc(C(=O)N=S4(=O)CC(N)C4)ccc3n(-c3ccc(C(F)(F)F)cc3)c2n1` (centres unmarked) [Example C270, N-(3-amino-1-oxo-1¿6-thietan-1-ylidene)-2-methyl-8-[4-(trifluoromethyl)phenyl]-2H,8H-pyrazolo[3,4-b]indole-5-carboxamide formate] returned an IC50 of 10 to 100 nM.

In the assay on YAP-TEAD interaction (setting [2]), `Cn1cc2c3cc(C(=O)N=S4(=O)CC5(CNC5)C4)ccc3n(-c3ccc(C(F)(F)F)cc3)c2n1` [Example C271, 2-methyl-N-{2-oxo-2¿6-thia-6-azaspiro[3.3]heptan-2-ylidene}-8-[4-(trifluoromethyl)phenyl]-2H,8H-pyrazolo[3,4-b]indole-5-carboxamide Formate] gave an IC50 of 100 to 10000 nM.

As to `Cn1cc2c3cc(C(=O)NC(CO)c4ncc[nH]4)ccc3n(-c3ccc(C(F)(F)F)cc3)c2n1` (centres unmarked) [Example C273, N-[2-hydroxy-1-(1H-imidazol-2-yl)ethyl]-2-methyl-8-[4-(trifluoromethyl)phenyl]-2H,8H-pyrazolo[3,4-b]indole-5-carboxamide trifluoroacetate], the IC50 in the assay on NCI-H226 cells (setting [1]) lay within 1 to 100 nM; in the assay on YAP-TEAD interaction (setting [2]) it was 10 to 100 nM.

Compound `Cn1nc2c3cc(C(=O)NC(CO)c4nncn4C)ccc3n(-c3ccc(C(F)(F)F)cc3)c2n1` (centres unmarked) [Example C274, N-[2-hydroxy-1-(4-methyl-4H-1,2,4-triazol-3-yl)ethyl]-2-methyl-4-[4-(trifluoromethyl)phenyl]-2H,4H-[1,2,3]triazolo[4,5-b]indole-7-carboxamide] displayed an IC50 in the assay with YAP-TEAD interaction (setting [2]) of 100 to 10000 nM.

Compound `Cn1cc2c3cc(C4CC(F)(F)C(=O)N4)ccc3n(-c3ccc(C(F)(F)F)cc3)c2n1` (centres unmarked) [Example C275, 3,3-difluoro-5-{2-methyl-8-[4-(trifluoromethyl)phenyl]-2H,8H-pyrazolo[3,4-b]indol-5-yl}pyrrolidin-2-one] had an IC50 in the assay with YAP-TEAD interaction (setting [2]) of 10 to 100 nM.

For `Cn1nc2c3cc(C(=O)NC(CO)c4cscn4)ccc3n(-c3ccc(C(F)(F)F)cc3)c2n1` (centres unmarked) [Example C276, N-[2-hydroxy-1-(1,3-thiazol-4-yl)ethyl]-2-methyl-4-[4-(trifluoromethyl)phenyl]-2H,4H-[1,2,3]triazolo[4,5-b]indole-7-carboxamide], the results for the IC50 in the assay on NCI-H226 cells (setting [1]) and with YAP-TEAD interaction (setting [2]) were 1 to 100 nM and 10 to 100 nM, respectively.

What is called IC50 is the midpoint of a concentration-inhibition curve.
